Values joined by “and” are separate entries in the source; they are usually repeats but may differ in a detail not shown here. Equal values may be shown once.
Organism: Rattus norvegicus
Experiment: DrugMatrix - Regimen: Daily Repeat
Type: toxicity, organism-based, Sprague-Dawley
Set-up: regimen Daily Repeat, gender Male, age 6-8 weeks
Details: in vivo; for ABSOLUTE BASOPHIL / ABSOLUTE EOSINOPHIL / ABSOLUTE LYMPHOCYTE / ABSOLUTE MONOCYTE / ABSOLUTE SEGMENTED NEUTROPHIL / HEMOGLOBIN / MEAN CORPUSCULAR HEMOGLOBIN / MEAN CORPUSCULAR VOLUME / BASOPHIL / EOSINOPHIL / ERYTHROCYTE COUNT / HEMATOCRIT / LEUKOCYTE COUNT / LYMPHOCYTE / MEAN CORPUSCULAR HEMOGLOBIN CONCENTRATION / MONOCYTE / NEUTROPHIL / PLATELET COUNT / NUCLEATED RED BLOOD CELLS: tissue Blood
[1] = ip, 40 mg/kg, 120 h, tissue Plasma, route intraperitoneal, dose level High, time 5 day, vehicle 100 % SALINE
[2] = ip, 40 mg/kg, […], route intraperitoneal, dose level High, time 14 day, vehicle 100 % SALINE
[3] = ip, 40 mg/kg, […], route intraperitoneal, dose level High, time 28 day, vehicle 100 % SALINE
[4] = ip, 40 mg/kg, […], tissue Plasma, route intraperitoneal, dose level High, time 14 day, vehicle 100 % SALINE
[5] = ip, 40 mg/kg, […], tissue Plasma, route intraperitoneal, dose level High, time 28 day, vehicle 100 % SALINE
[6] = sc, 34 mg/kg, 72 h, route subcutaneous, dose level Low, time 3 day, […]
[7] = sc, 34 mg/kg, 72 h, tissue Plasma, route subcutaneous, dose level Low, time 3 day, […]
[8] = sc, 34 mg/kg, 120 h, route subcutaneous, dose level Low, time 5 day, […]
[9] = sc, 34 mg/kg, 120 h, tissue Plasma, route subcutaneous, dose level Low, time 5 day, […]

Sequence: GENTAMICIN
- LIPASE [1]: 13.6 u/L and 7.25 u/L
- PHOSPHORUS [1]: 12.05 mg/dL
- POTASSIUM [1]: 5.95 MEQ/L
- SODIUM [1]: 150.75 MEQ/L
- TOTAL BILIRUBIN [1]: 0.18 mg/dL and 0.33 mg/dL
- TOTAL PROTEIN [1]: 5.74 G/DL and 6.48 G/DL
- URIC ACID [1]: 0.96 mg/dL
- ABSOLUTE BASOPHIL [2]: 72 cells/µL
- ABSOLUTE EOSINOPHIL [2]: 92 cells/µL
- ABSOLUTE LYMPHOCYTE [2]: 8980 cells/µL
- ABSOLUTE MONOCYTE [2]: 190 cells/µL
- ABSOLUTE SEGMENTED NEUTROPHIL [2]: 1000 cells/µL
- HEMOGLOBIN [2]: 15.3 G/DL
- MEAN CORPUSCULAR HEMOGLOBIN [2]: 19.4 pg
- MEAN CORPUSCULAR VOLUME [2]: 59.54 fL
- ABSOLUTE BASOPHIL [3]: 99 cells/µL
- ABSOLUTE EOSINOPHIL [3]: 110 cells/µL
- ABSOLUTE LYMPHOCYTE [3]: 11600 cells/µL
- ABSOLUTE MONOCYTE [3]: 260 cells/µL
- ABSOLUTE SEGMENTED NEUTROPHIL [3]: 1950 cells/µL
- BASOPHIL [3]: 0.7%
- EOSINOPHIL [3]: 0.81%
- ERYTHROCYTE COUNT [3]: 8.29 x10E6/uL
- HEMATOCRIT [3]: 46.05%
- HEMOGLOBIN [3]: 15.27 G/DL
- LEUKOCYTE COUNT [3]: 14.13 x10E3/uL
- LYMPHOCYTE [3]: 82.22%
- MEAN CORPUSCULAR HEMOGLOBIN [3]: 18.44 pg
- MEAN CORPUSCULAR HEMOGLOBIN CONCENTRATION [3]: 33.17 G/DL
- MEAN CORPUSCULAR VOLUME [3]: 55.59 fL
- MONOCYTE [3]: 1.82%
- NEUTROPHIL [3]: 14.01%
- PLATELET COUNT [3]: 1416.3 x10E3/uL
- CARBON DIOXIDE [4]: 25.75 mmol/L
- CHLORIDE [4]: 107 MEQ/L
- SODIUM [4]: 150 MEQ/L
- ALANINE AMINOTRANSFERASE [5]: 32.3 u/L
- ALBUMIN [5]: 3.62 G/DL
- ALKALINE PHOSPHATASE [5]: 139.3 u/L
- ASPARTATE AMINOTRANSFERASE [5]: 96 u/L
- BLOOD UREA NITROGEN [5]: 14.9 mg/dL
- CHOLESTEROL [5]: 65.3 mg/dL
- CREATINE PHOSPHOKINASE [5]: 320.4 u/L
- CREATININE [5]: 0.65 mg/dL
- LACTATE DEHYDROGENASE [5]: 119.4 u/L
- LIPASE [5]: 11 u/L
- PHOSPHORUS [5]: 9.46 mg/dL
- POTASSIUM [5]: 6.33 MEQ/L
- TOTAL BILIRUBIN [5]: 0.17 mg/dL
- TOTAL PROTEIN [5]: 6.66 G/DL
- URIC ACID [5]: 1.24 mg/dL
- ABSOLUTE BASOPHIL [6]: 0 CELLS/uL
- ABSOLUTE EOSINOPHIL [6]: 60.67 CELLS/uL
- ABSOLUTE LYMPHOCYTE [6]: 14515.67 CELLS/uL
- ABSOLUTE MONOCYTE [6]: 63 CELLS/uL
- ABSOLUTE SEGMENTED NEUTROPHIL [6]: 1227.33 CELLS/uL
- BASOPHIL [6]: 0%
- EOSINOPHIL [6]: 0.33%
- ERYTHROCYTE COUNT [6]: 5.19 x10E6/uL
- HEMATOCRIT [6]: 32.97%
- HEMOGLOBIN [6]: 12.73 G/DL
- LEUKOCYTE COUNT [6]: 15.87 x10E3/uL
- LYMPHOCYTE [6]: 91.67%
- MEAN CORPUSCULAR HEMOGLOBIN [6]: 24.57 pg
- MEAN CORPUSCULAR HEMOGLOBIN CONCENTRATION [6]: 38.63 G/DL
- MEAN CORPUSCULAR VOLUME [6]: 63.57 fL
- MONOCYTE [6]: 0.33%
- NEUTROPHIL [6]: 7.67%
- NUCLEATED RED BLOOD CELLS [6]: 0 /100WBC
- PLATELET COUNT [6]: 1222.33 x10E3/uL
- ALANINE AMINOTRANSFERASE [7]: 55.67 u/L
- ALBUMIN [7]: 4 G/DL
- ALKALINE PHOSPHATASE [7]: 327 u/L
- ASPARTATE AMINOTRANSFERASE [7]: 105 u/L
- BLOOD UREA NITROGEN [7]: 14.67 mg/dL
- CARBON DIOXIDE [7]: 20.67 mmol/L
- CHLORIDE [7]: 107.33 MEQ/L
- CHOLESTEROL [7]: 82 mg/dL
- CREATINE PHOSPHOKINASE [7]: 574.67 u/L
- CREATININE [7]: 0.29 mg/dL
- GLUCOSE [7]: 196.33 mg/dL
- LACTATE DEHYDROGENASE [7]: 268.67 u/L
- LIPASE [7]: 11.33 u/L
- POTASSIUM [7]: 6.59 MEQ/L
- SODIUM [7]: 147.27 MEQ/L
- TOTAL BILIRUBIN [7]: 0.2 mg/dL
- TOTAL PROTEIN [7]: 5.7 G/DL
- ABSOLUTE BASOPHIL [8]: 0 CELLS/uL
- ABSOLUTE EOSINOPHIL [8]: 0 CELLS/uL
- ABSOLUTE LYMPHOCYTE [8]: 14029.67 CELLS/uL
- ABSOLUTE MONOCYTE [8]: 90.67 CELLS/uL
- ABSOLUTE SEGMENTED NEUTROPHIL [8]: 1246.33 CELLS/uL
- BASOPHIL [8]: 0%
- EOSINOPHIL [8]: 0%
- ERYTHROCYTE COUNT [8]: 5.74 x10E6/uL
- HEMOGLOBIN [8]: 13.5 G/DL
- LEUKOCYTE COUNT [8]: 15.37 x10E3/uL
- LYMPHOCYTE [8]: 91%
- MEAN CORPUSCULAR HEMOGLOBIN [8]: 23.57 pg
- MEAN CORPUSCULAR HEMOGLOBIN CONCENTRATION [8]: 36.03 G/DL
- MONOCYTE [8]: 0.67%
- NEUTROPHIL [8]: 8.33%
- NUCLEATED RED BLOOD CELLS [8]: 0 /100WBC
- PLATELET COUNT [8]: 1310.33 x10E3/uL
- ALANINE AMINOTRANSFERASE [9]: 46.33 u/L
- ALBUMIN [9]: 4.2 G/DL
- ALKALINE PHOSPHATASE [9]: 391.33 u/L
- ASPARTATE AMINOTRANSFERASE [9]: 95.33 u/L
- CARBON DIOXIDE [9]: 24 mmol/L
- CHLORIDE [9]: 106.67 MEQ/L
- CHOLESTEROL [9]: 71 mg/dL
- CREATINE PHOSPHOKINASE [9]: 308.33 u/L
- CREATININE [9]: 0.18 mg/dL
- LACTATE DEHYDROGENASE [9]: 196.33 u/L
- PHOSPHORUS [9]: 13.37 mg/dL
- POTASSIUM [9]: 7.64 MEQ/L
- TOTAL BILIRUBIN [9]: 0.2 mg/dL

Reference: ChEMBL document CHEMBL3885881, “DrugMatrix”
